Data published in ChEMBL document CHEMBL6127104, “Prorocentin-5: A Cytotoxic Polyketide from the Benthic Marine Dinoflagellate Prorocentrum lima” (J Nat Prod, 2024).

Legend:
Format in all cases: functional
[1] = system: N2a; assay: Induction of apoptosis in mouse Neuro2a cells assessed as necrotic cells at 1 uM incubated for 24 hrs by Annexin V-FITC/PI staining based analysis (reference value: 4.33 %)
[2] = system: HepG2; assay: Induction of apoptosis in human HepG2 cells assessed as fold increase in late apoptotic cells at 1 uM incubated for 24 hrs by Annexin V-FITC/PI staining based flow cytometric analysis
[3] = system: HepG2; assay: Induction of cell cycle arrest in human HepG2 cells assessed as accumulation of cells at G2/M phase at 0.1 uM incubated for 24 hrs by flow cytometric analysis (reference value: 6.7 %)
[4] = system: N2a; assay: Induction of apoptosis in mouse Neuro2a cells assessed as late apoptotic cells at 0.1 uM incubated for 24 hrs by Annexin V-FITC/PI staining based analysis (reference value: 0.81 %)
[5] = system: HCT-116; assay: Induction of cell cycle arrest in human HCT-116 cells assessed as accumulation of cells at G0/G1 phase at 0.1 uM incubated for 24 hrs by flow cytometric analysis (reference value: 90.2 %)
[6] = system: HepG2; assay: Induction of apoptosis in human HepG2 cells assessed as late apoptotic cells at 1 uM incubated for 24 hrs by Annexin V-FITC/PI staining based flow cytometric analysis (reference value: 2.05 %)
[7] = system: HCT-116; assay: Induction of cell cycle arrest in human HCT-116 cells assessed as accumulation of cells at G0/G1 phase at 1 uM incubated for 24 hrs by flow cytometric analysis (reference value: 90.2 %)
[8] = system: HCT-116; assay: Induction of apoptosis in human HCT-116 cells assessed as necrotic cells at 1 uM incubated for 24 hrs by Annexin V-FITC/PI staining based flow cytometric analysis (reference value: 1.45 %)
[9] = system: HepG2; assay: Induction of apoptosis in human HepG2 cells assessed as fold increase in early apoptotic cells at 1 uM incubated for 24 hrs by Annexin V-FITC/PI staining based flow cytometric analysis
[10] = system: N2a; assay: Induction of apoptosis in mouse Neuro2a cells assessed as fold increase in early apoptotic cells at 1 uM incubated for 24 hrs by Annexin V-FITC/PI staining based analysis
[11] = system: HepG2; assay: Induction of apoptosis in human HepG2 cells assessed as viable cells at 0.1 uM incubated for 24 hrs by Annexin V-FITC/PI staining based flow cytometric analysis (reference value: 90.08 %); conditions: read-out: Activity
[12] = system: HCT-116; assay: Induction of apoptosis in human HCT-116 cells assessed as viable cells at 0.1 uM incubated for 24 hrs by Annexin V-FITC/PI staining based flow cytometric analysis (reference value: 90.50 %); conditions: read-out: Activity
[13] = system: HCT-116; assay: Induction of apoptosis in human HCT-116 cells assessed as late apoptotic cells at 0.1 uM incubated for 24 hrs by Annexin V-FITC/PI staining based flow cytometric analysis (reference value: 6.15 %)
[14] = system: HCT-116; assay: Induction of apoptosis in human HCT-116 cells assessed as early apoptotic cells at 1 uM incubated for 24 hrs by Annexin V-FITC/PI staining based flow cytometric analysis (reference value: 1.90 %)
[15] = system: HCT-116; assay: Induction of apoptosis in human HCT-116 cells assessed as late apoptotic cells at 1 uM incubated for 24 hrs by Annexin V-FITC/PI staining based flow cytometric analysis (reference value: 6.15 %)
[16] = system: HCT-116; assay: Induction of apoptosis in human HCT-116 cells assessed as early apoptotic cells at 0.1 uM incubated for 24 hrs by Annexin V-FITC/PI staining based flow cytometric analysis (reference value: 1.90 %)
[17] = system: N2a; assay: Induction of apoptosis in mouse Neuro2a cells assessed as viable cells at 1 uM incubated for 24 hrs by Annexin V-FITC/PI staining based analysis (reference value: 91.70 %); conditions: read-out: Activity
[18] = system: N2a; assay: Induction of apoptosis in mouse Neuro2a cells assessed as late apoptotic cells at 1 uM incubated for 24 hrs by Annexin V-FITC/PI staining based analysis (reference value: 0.81 %)
[19] = system: N2a; assay: Induction of apoptosis in mouse Neuro2a cells assessed as fold increase in late apoptotic cells at 1 uM incubated for 24 hrs by Annexin V-FITC/PI staining based analysis
[20] = system: HepG2; assay: Induction of apoptosis in human HepG2 cells assessed as necrotic cells at 1 uM incubated for 24 hrs by Annexin V-FITC/PI staining based flow cytometric analysis (reference value: 3.02 %)
[21] = system: HepG2; assay: Induction of cell cycle arrest in human HepG2 cells assessed as accumulation of cells at S phase at 0.1 uM incubated for 24 hrs by flow cytometric analysis (reference value: 27.8 %)
[22] = system: N2a; assay: Induction of cell cycle arrest in mouse Neuro2a cells assessed as accumulation of cells at G2/M phase at 0.1 uM incubated for 24 hrs by flow cytometric analysis (reference value: 8.0 %)
[23] = system: HepG2; assay: Induction of apoptosis in human HepG2 cells assessed as early apoptotic cells at 0.1 uM incubated for 24 hrs by Annexin V-FITC/PI staining based flow cytometric analysis (reference value: 4.85 %)
[24] = system: HCT-116; assay: Induction of apoptosis in human HCT-116 cells assessed as necrotic cells at 0.1 uM incubated for 24 hrs by Annexin V-FITC/PI staining based flow cytometric analysis (reference value: 1.45 %)
[25] = system: N2a; assay: Induction of cell cycle arrest in mouse Neuro2a cells assessed as accumulation of cells at S phase at 1 uM incubated for 24 hrs by flow cytometric analysis (reference value: 30.5 %)
[26] = system: HCT-116; assay: Induction of apoptosis in human HCT-116 cells assessed as fold increase in late apoptotic cells at 1 uM incubated for 24 hrs by Annexin V-FITC/PI staining based analysis
[27] = system: N2a; assay: Induction of apoptosis in mouse Neuro2a cells assessed as early apoptotic cells at 1 uM incubated for 24 hrs by Annexin V-FITC/PI staining based analysis (reference value: 3.17 %)
[28] = system: N2a; assay: Induction of apoptosis in mouse Neuro2a cells assessed as viable cells at 0.1 uM incubated for 24 hrs by Annexin V-FITC/PI staining based analysis (reference value: 91.70 %); conditions: read-out: Activity
[29] = system: HepG2; assay: Induction of apoptosis in human HepG2 cells assessed as late apoptotic cells at 0.1 uM incubated for 24 hrs by Annexin V-FITC/PI staining based flow cytometric analysis (reference value: 2.05 %)
[30] = system: HepG2; assay: Induction of cell cycle arrest in human HepG2 cells assessed as accumulation of cells at G0/G1 phase at 1 uM incubated for 24 hrs by flow cytometric analysis (reference value: 66.4 %)
[31] = system: HCT-116; assay: Induction of cell cycle arrest in human HCT-116 cells assessed as accumulation of cells at S phase at 0.1 uM incubated for 24 hrs by flow cytometric analysis (reference value: 19.2 %)
[32] = system: N2a; assay: Induction of cell cycle arrest in mouse Neuro2a cells assessed as accumulation of cells at S phase at 0.1 uM incubated for 24 hrs by flow cytometric analysis (reference value: 30.5 %)
[33] = system: HepG2; assay: Induction of cell cycle arrest in human HepG2 cells assessed as accumulation of cells at G0/G1 phase at 0.1 uM incubated for 24 hrs by flow cytometric analysis (reference value: 66.4 %)
[34] = system: HepG2; assay: Induction of cell cycle arrest in human HepG2 cells assessed as accumulation of cells at S phase at 1 uM incubated for 24 hrs by flow cytometric analysis (reference value: 27.8 %)
[35] = system: HepG2; assay: Induction of apoptosis in human HepG2 cells assessed as early apoptotic cells at 1 uM incubated for 24 hrs by Annexin V-FITC/PI staining based flow cytometric analysis (reference value: 4.85 %)
[36] = system: HepG2; assay: Induction of apoptosis in human HepG2 cells assessed as viable cells at 1 uM incubated for 24 hrs by Annexin V-FITC/PI staining based flow cytometric analysis (reference value: 90.08 %); conditions: read-out: Activity
[37] = system: HepG2; assay: Induction of apoptosis in human HepG2 cells assessed as necrotic cells at 0.1 uM incubated for 24 hrs by Annexin V-FITC/PI staining based flow cytometric analysis (reference value: 3.02 %)
[38] = system: N2a; assay: Induction of apoptosis in mouse Neuro2a cells assessed as necrotic cells at 0.1 uM incubated for 24 hrs by Annexin V-FITC/PI staining based analysis (reference value: 4.33 %)
[39] = system: N2a; assay: Induction of apoptosis in mouse Neuro2a cells assessed as early apoptotic cells at 0.1 uM incubated for 24 hrs by Annexin V-FITC/PI staining based analysis (reference value: 3.17 %)
[40] = system: N2a; assay: Induction of cell cycle arrest in mouse Neuro2a cells assessed as accumulation of cells at G0/G1 phase at 0.1 uM incubated for 24 hrs by flow cytometric analysis (reference value: 61.5 %)
[41] = system: N2a; assay: Induction of cell cycle arrest in mouse Neuro2a cells assessed as accumulation of cells at G2/M phase at 1 uM incubated for 24 hrs by flow cytometric analysis (reference value: 8.0 %)
[42] = system: HCT-116; assay: Induction of apoptosis in human HCT-116 cells assessed as viable cells at 1 uM incubated for 24 hrs by Annexin V-FITC/PI staining based flow cytometric analysis (reference value: 90.50 %); conditions: read-out: Activity
[43] = system: HepG2; assay: Induction of cell cycle arrest in human HepG2 cells assessed as accumulation of cells at G2/M phase at 1 uM incubated for 24 hrs by flow cytometric analysis (reference value: 27.8 %)
[44] = system: HCT-116; assay: Induction of cell cycle arrest in human HCT-116 cells assessed as accumulation of cells at G2/M phase at 1 uM incubated for 24 hrs by flow cytometric analysis (reference value: 30.6 %)
[45] = system: HCT-116; assay: Induction of cell cycle arrest in human HCT-116 cells assessed as accumulation of cells at G2/M phase at 0.1 uM incubated for 24 hrs by flow cytometric analysis (reference value: 30.6 %)
[46] = system: N2a; assay: Induction of cell cycle arrest in mouse Neuro2a cells assessed as accumulation of cells at G0/G1 phase at 1 uM incubated for 24 hrs by flow cytometric analysis (reference value: 61.5 %)
[47] = system: HCT-116; assay: Induction of cell cycle arrest in human HCT-116 cells assessed as accumulation of cells at S phase at 1 uM incubated for 24 hrs by flow cytometric analysis (reference value: 19.2 %)
[48] = system: HCT-116; assay: Induction of apoptosis in human HCT-116 cells assessed as fold increase in early apoptotic cells at 1 uM incubated for 24 hrs by Annexin V-FITC/PI staining based analysis

C=C1[C@@H](O)[C@@H]2O[C@]3(CC[C@H](/C=C/[C@@H](C)[C@@H]4CC(C)=C[C@@]5(O[C@H](C[C@@](C)(O)C(=O)O)CC[C@H]5O)O4)O3)CC[C@H]2O[C@@H]1[C@@H](O)C[C@H](C)[C@H]1O[C@@]2(CCCCO2)CC[C@H]1C [OKADAIC ACID]
Activity [1]: 0.57%
fold change (FC) [2]: 11
Activity [3]: 14.6%
Activity [4]: 7.75%
Activity [5]: 32.2%
Activity [6]: 22.44%
Activity [7]: 55.5%
Activity [8]: 19.75%
fold change (FC) [9]: 4.9
fold change (FC) [10]: 9.2
viability at 0.1 µM [11]: 52.7%
viability at 0.1 µM [12]: 79.2%
Activity [13]: 7.55%
Activity [14]: 3.65%
Activity [15]: 16.9%
Activity [16]: 0.8%
viability at 1 µM [17]: 59.7%
Activity [18]: 10.7%
fold change (FC) [19]: 13.2
Activity [20]: 2.92%
Activity [21]: 36.8%
Activity [22]: 13%
Activity [23]: 13.5%
Activity [24]: 12.45%
Activity [25]: 55%
fold change (FC) [26]: 2.8
Activity [27]: 29.01%
viability at 0.1 µM [28]: 76.4%
Activity [29]: 24.73%
Activity [30]: 49.5%
Activity [31]: 23%
Activity [32]: 56.6%
Activity [33]: 48.5%
Activity [34]: 37.2%
Activity [35]: 23.72%
viability at 1 µM [36]: 50.9%
Activity [37]: 9.05%
Activity [38]: 4.9%
Activity [39]: 10.91%
Activity [40]: 30.4%
Activity [41]: 8.1%
viability at 1 µM [42]: 59.7%
Activity [43]: 13.3%
Activity [44]: 20.4%
Activity [45]: 44.6%
Activity [46]: 36%
Activity [47]: 23.9%
fold change (FC) [48]: 1.9
